Reference: PubChem BioAssay (NCI)
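Growth conditions: 96-well plates. Treatment: test compound, 48 hours, 5 concentrations. Analysis: linear interpolation between bracketing concentrations; unreached endpoints set to highest concentration. TGI: total growth inhibition.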

Experiments:
Experiment in all cases: growth of human tumour cells (NCI), 48 h
786-0 renal = test system: 786-0 renal
A498 renal = test system: A498 renal
A549 NSCLC = test system: A549 NSCLC
ACHN renal = test system: ACHN renal
CAKI-1 renal = test system: CAKI-1 renal
CCRF-CEM leukemia = test system: CCRF-CEM leukemia
EKVX NSCLC = test system: EKVX NSCLC
HCC-2998 colon = test system: HCC-2998 colon
HCT-116 colon = test system: HCT-116 colon
HCT-15 colon = test system: HCT-15 colon
HL-60(TB) leukemia = test system: HL-60(TB) leukemia
HOP-62 NSCLC = test system: HOP-62 NSCLC
HOP-92 NSCLC = test system: HOP-92 NSCLC
HT29 colon = test system: HT29 colon
IGROV1 ovarian = test system: IGROV1 ovarian
K-562 leukemia = test system: K-562 leukemia
KM12 colon = test system: KM12 colon
KM20L2 colon = test system: KM20L2 colon
LOX IMVI melanoma = test system: LOX IMVI melanoma
M14 melanoma = test system: M14 melanoma
MOLT-4 leukemia = test system: MOLT-4 leukemia
NCI-H226 lung = test system: NCI-H226 lung
NCI-H23 lung = test system: NCI-H23 lung
NCI-H460 lung = test system: NCI-H460 lung
NCI-H522 lung = test system: NCI-H522 lung
OVCAR-3 ovarian = test system: OVCAR-3 ovarian
OVCAR-5 ovarian = test system: OVCAR-5 ovarian
OVCAR-8 ovarian = test system: OVCAR-8 ovarian
RXF 393 renal = test system: RXF 393 renal
RXF-631 renal = test system: RXF-631 renal
SF-268 CNS = test system: SF-268 CNS
SF-295 CNS = test system: SF-295 CNS
SF-539 CNS = test system: SF-539 CNS
SK-MEL-2 melanoma = test system: SK-MEL-2 melanoma
SK-MEL-28 melanoma = test system: SK-MEL-28 melanoma
SK-OV-3 ovarian = test system: SK-OV-3 ovarian
SNB-19 CNS = test system: SNB-19 CNS
SNB-78 CNS = test system: SNB-78 CNS
SR leukemia = test system: SR leukemia
SW-620 colon = test system: SW-620 colon
TK-10 renal = test system: TK-10 renal
UACC-257 melanoma = test system: UACC-257 melanoma
UACC-62 melanoma = test system: UACC-62 melanoma
UO-31 renal = test system: UO-31 renal
COLO 205 colon = test system: COLO 205 colon
DLD-1 colon = test system: DLD-1 colon
DMS 114 small cell lung = test system: DMS 114 small cell lung
DMS 273 small cell lung = test system: DMS 273 small cell lung
HOP-18 NSCLC = test system: HOP-18 NSCLC
LXFL 529 NSCLC = test system: LXFL 529 NSCLC
M19-MEL melanoma = test system: M19-MEL melanoma
MALME-3M melanoma = test system: MALME-3M melanoma
OVCAR-4 ovarian = test system: OVCAR-4 ovarian
RPMI-8226 leukemia = test system: RPMI-8226 leukemia
SK-MEL-5 melanoma = test system: SK-MEL-5 melanoma
SN12C renal = test system: SN12C renal
SNB-75 CNS = test system: SNB-75 CNS
U251 CNS = test system: U251 CNS
XF 498 CNS = test system: XF 498 CNS

Q: Which TGI (786-0 renal) does the source give for `c1ccc(N/N=C2\NN=C(c3ccccc3)CS2)cc1` here?
A: 33.6 µM

Q: And the TGI (A498 renal)?
A: 25.8 µM

Q: What about the TGI (A549 NSCLC) of the same compound?
A: 22.2 µM

Q: What about the TGI (ACHN renal) of the same compound?
A: 19.1 µM

Q: And the TGI (CAKI-1 renal)?
A: 8.32 µM

Q: And the TGI (CCRF-CEM leukemia)?
A: 54.9 µM

Q: What about the TGI (EKVX NSCLC) of the same compound?
A: 37.4 µM

Q: And the TGI (HCC-2998 colon)?
A: 19.3 µM

Q: What about the TGI (HCT-116 colon) of the same compound?
A: 15.2 µM

Q: And the TGI (HCT-15 colon)?
A: 20.9 µM

Q: What about the TGI (HL-60(TB) leukemia) of the same compound?
A: > 100 µM

Q: What about the TGI (HOP-62 NSCLC) of the same compound?
A: > 100 µM

Q: What about the TGI (HOP-92 NSCLC) of the same compound?
A: 31.9 µM

Q: And the TGI (HT29 colon)?
A: 24 µM

Q: And the TGI (IGROV1 ovarian)?
A: 32.3 µM

Q: What about the TGI (K-562 leukemia) of the same compound?
A: 25.8 µM

Q: And the TGI (KM12 colon)?
A: 53.2 µM

Q: What about the TGI (KM20L2 colon) of the same compound?
A: 22.8 µM

Q: What about the TGI (LOX IMVI melanoma) of the same compound?
A: 15.3 µM

Q: What about the TGI (M14 melanoma) of the same compound?
A: 24.8 µM

Q: And the TGI (MOLT-4 leukemia)?
A: 34.1 µM

Q: What about the TGI (NCI-H226 lung) of the same compound?
A: > 100 µM

Q: And the TGI (NCI-H23 lung)?
A: 52.3 µM

Q: What about the TGI (NCI-H460 lung) of the same compound?
A: 51.4 µM

Q: What about the TGI (NCI-H522 lung) of the same compound?
A: 10.8 µM

Q: And the TGI (OVCAR-3 ovarian)?
A: 50.9 µM

Q: And the TGI (OVCAR-5 ovarian)?
A: 41.8 µM

Q: What about the TGI (OVCAR-8 ovarian) of the same compound?
A: 19.7 µM

Q: What about the TGI (RXF 393 renal) of the same compound?
A: 25.1 µM

Q: What about the TGI (RXF-631 renal) of the same compound?
A: 35.8 µM

Q: What about the TGI (SF-268 CNS) of the same compound?
A: 19.8 µM

Q: And the TGI (SF-295 CNS)?
A: 48.6 µM

Q: And the TGI (SF-539 CNS)?
A: 41.7 µM

Q: And the TGI (SK-MEL-2 melanoma)?
A: 44 µM

Q: What about the TGI (SK-MEL-28 melanoma) of the same compound?
A: 36.6 µM

Q: What about the TGI (SK-OV-3 ovarian) of the same compound?
A: 39.9 µM

Q: What about the TGI (SNB-19 CNS) of the same compound?
A: 85.9 µM

Q: And the TGI (SNB-78 CNS)?
A: 34.2 µM

Q: And the TGI (SR leukemia)?
A: > 100 µM

Q: And the TGI (SW-620 colon)?
A: 29.9 µM

Q: What about the TGI (TK-10 renal) of the same compound?
A: 26.5 µM

Q: What about the TGI (UACC-257 melanoma) of the same compound?
A: 41.4 µM

Q: What about the TGI (UACC-62 melanoma) of the same compound?
A: 21.5 µM

Q: What about the TGI (UO-31 renal) of the same compound?
A: 32.8 µM

Q: With `Cc1cc(Cl)ccc1NC(=O)C(=O)C(C(=O)c1ccccc1)C1OC(=O)c2ccccc21` (stereo unspecified) as the compound, how does the TGI (786-0 renal) read?
A: > 100 µM

Q: And the TGI (A498 renal)?
A: > 100 µM

Q: What about the TGI (A549 NSCLC) of the same compound?
A: > 100 µM

Q: And the TGI (ACHN renal)?
A: > 100 µM

Q: What about the TGI (CAKI-1 renal) of the same compound?
A: > 100 µM

Q: And the TGI (CCRF-CEM leukemia)?
A: > 100 µM

Q: What about the TGI (COLO 205 colon) of the same compound?
A: > 100 µM

Q: What about the TGI (DLD-1 colon) of the same compound?
A: > 100 µM

Q: What about the TGI (DMS 114 small cell lung) of the same compound?
A: > 100 µM

Q: What about the TGI (DMS 273 small cell lung) of the same compound?
A: > 100 µM

Q: And the TGI (EKVX NSCLC)?
A: > 100 µM

Q: And the TGI (HCC-2998 colon)?
A: > 100 µM

Q: What about the TGI (HCT-116 colon) of the same compound?
A: > 100 µM

Q: And the TGI (HCT-15 colon)?
A: > 100 µM

Q: And the TGI (HL-60(TB) leukemia)?
A: > 100 µM

Q: And the TGI (HOP-18 NSCLC)?
A: > 100 µM

Q: What about the TGI (HOP-62 NSCLC) of the same compound?
A: > 100 µM

Q: What about the TGI (HOP-92 NSCLC) of the same compound?
A: > 100 µM

Q: And the TGI (HT29 colon)?
A: > 100 µM

Q: And the TGI (IGROV1 ovarian)?
A: > 100 µM

Q: What about the TGI (K-562 leukemia) of the same compound?
A: > 100 µM

Q: What about the TGI (KM12 colon) of the same compound?
A: > 100 µM

Q: And the TGI (KM20L2 colon)?
A: > 100 µM

Q: What about the TGI (LOX IMVI melanoma) of the same compound?
A: > 100 µM

Q: What about the TGI (LXFL 529 NSCLC) of the same compound?
A: > 100 µM

Q: What about the TGI (M14 melanoma) of the same compound?
A: > 100 µM

Q: And the TGI (M19-MEL melanoma)?
A: > 100 µM

Q: What about the TGI (MALME-3M melanoma) of the same compound?
A: > 100 µM

Q: And the TGI (MOLT-4 leukemia)?
A: > 100 µM

Q: And the TGI (NCI-H226 lung)?
A: > 100 µM

Q: What about the TGI (NCI-H23 lung) of the same compound?
A: > 100 µM

Q: And the TGI (NCI-H460 lung)?
A: > 100 µM

Q: What about the TGI (NCI-H522 lung) of the same compound?
A: > 100 µM

Q: And the TGI (OVCAR-4 ovarian)?
A: > 100 µM

Q: What about the TGI (OVCAR-5 ovarian) of the same compound?
A: > 100 µM

Q: And the TGI (OVCAR-8 ovarian)?
A: > 100 µM

Q: What about the TGI (RPMI-8226 leukemia) of the same compound?
A: > 100 µM

Q: What about the TGI (RXF 393 renal) of the same compound?
A: > 100 µM

Q: What about the TGI (SF-268 CNS) of the same compound?
A: > 100 µM

Q: And the TGI (SF-295 CNS)?
A: > 100 µM

Q: What about the TGI (SF-539 CNS) of the same compound?
A: > 100 µM

Q: What about the TGI (SK-MEL-2 melanoma) of the same compound?
A: > 100 µM

Q: What about the TGI (SK-MEL-28 melanoma) of the same compound?
A: > 100 µM

Q: What about the TGI (SK-MEL-5 melanoma) of the same compound?
A: > 100 µM

Q: And the TGI (SK-OV-3 ovarian)?
A: > 100 µM

Q: And the TGI (SN12C renal)?
A: > 100 µM

Q: And the TGI (SNB-19 CNS)?
A: > 100 µM

Q: And the TGI (SNB-75 CNS)?
A: > 100 µM

Q: And the TGI (SNB-78 CNS)?
A: > 100 µM

Q: What about the TGI (SR leukemia) of the same compound?
A: > 100 µM

Q: What about the TGI (SW-620 colon) of the same compound?
A: > 100 µM

Q: And the TGI (TK-10 renal)?
A: > 100 µM

Q: What about the TGI (U251 CNS) of the same compound?
A: > 100 µM

Q: And the TGI (UACC-257 melanoma)?
A: > 100 µM

Q: And the TGI (UACC-62 melanoma)?
A: > 100 µM

Q: What about the TGI (UO-31 renal) of the same compound?
A: > 100 µM

Q: And the TGI (XF 498 CNS)?
A: > 100 µM
